ChEMBL document CHEMBL3044543, “Synthetic sialic-acid-containing polyvalent antiviral inhibitors” (Med Chem Res, 2009)

Experiments:
[1] = target: Hemagglutinin (Influenza A virus, UniProt K7N5L2); assay: Binding affinity to Influenza virus A Hemagglutinin
[2] = target: Hemagglutinin (Influenza A virus) (UniProt K7N5L2); assay: Inhibition of Influenza virus A/H3N2/NIB/44/90M Hemagglutinin after 2 hr by horseradish peroxidase assay relative to Neu5Aalpha

Compound	IC50 [1] [mM]	Ratio [2]
CC(=O)N[C@H]1[C@H]([C@H](O)[C@H](O)CO)OC(OCCCCCCC(=O)NCc2cccc3ccccc23)(C(=O)O)C[C@@H]1OC(=O)CNS(=O)(=O)c1cccc2c(N(C)C)cccc12 (some centres not stated)	3	
CC(=O)N[C@H]1[C@H]([C@H](O)[C@H](O)CO)OC(OCc2ccc(NC(=O)CNC(=O)CCCCC(=O)NCC(=O)NCC(=O)NCC(=O)NCC(=O)NCC(=O)NCC(=O)NCC(=O)NCC(CNC(=O)CNC(=O)CNC(=O)CNC(=O)CNC(=O)CNC(=O)CNC(=O)CNC(=O)CCCCC(=O)NCC(=O)Nc3ccc(COC4(C(=O)O)C[C@H](O)[C@@H](NC(C)=O)[C@H]([C@H](O)[C@H](O)CO)O4)cc3)(CNC(=O)CNC(=O)CNC(=O)CNC(=O)CNC(=O)CNC(=O)CNC(=O)CNC(=O)CCCCC(=O)NCC(=O)Nc3ccc(COC4(C(=O)O)C[C@H](O)[C@@H](NC(C)=O)[C@H]([C@H](O)[C@H](O)CO)O4)cc3)CNC(=O)CNC(=O)CNC(=O)CNC(=O)CNC(=O)CNC(=O)CNC(=O)CNC(=O)CCCCC(=O)NCC(=O)Nc3ccc(COC4(C(=O)O)C[C@H](O)[C@@H](NC(C)=O)[C@H]([C@H](O)[C@H](O)CO)O4)cc3)cc2)(C(=O)O)C[C@@H]1O (some centres not stated)		1000
